The results in this text go back to PubChem BioAssay (NCI).

Holding throughout (assay): inhibition of tumour cell growth, NCI panel, 48 h
Experiment [1] concerns CAKI-1 renal.
Experiment [2] relates to HOP-92 NSCLC.
The test system of experiment [3] is TK-10 renal.
For experiment [4], the system named is T-47D breast.
Experiment [5] has as its system NCI-H226 lung.
Experiment [6] deals with SW-620 colon.
In experiment [7] the test system is OVCAR-5 ovarian.
Experiment [8] concerns HCT-15 colon.

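96-well plates; 48 h exposure; 5 concentrations. Endpoints by linear interpolation between flanking doses. Not reached: highest tested concentration assigned. GI50 = concentration required for 50% inhibition of growth. TGI is the concentration that stops growth completely.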

For the molecule `COc1ncc2cc1NS(=O)(=O)c1cccc(c1)C(=O)NCC1=CC=C(S1)c1ncnc3c1SC2=C3C`, the GI50 in experiment [1] was 0.0795 µM; in experiment [2], 0.0526 µM; in experiment [3] it was 0.51 µM; in experiment [4] it was 0.0946 µM; in experiment [5], 0.47 µM; in experiment [6] it was 0.49 µM. The GI50 in experiment [7] was 0.169 µM; in experiment [8] it was 0.254 µM. In addition, the TGI in experiment [1] was determined as 10.3 µM; in experiment [2] it was 0.667 µM; in experiment [3], 10.4 µM; in experiment [4], 4.04 µM; in experiment [5], 2.6 µM; in experiment [6], 3.31 µM. Moreover, the TGI in experiment [7] was determined as 4.02 µM; in experiment [8], 1.36 µM.
Take `CCOC(=O)c1cc2cc(OCc3ccccc3)ccc2[nH]1`: the GI50 is more than 100 µM in experiment [1]; 62.3 µM in experiment [2]; more than 100 µM in experiment [3]; more than 100 µM in experiment [4]; more than 100 µM in experiment [5]; more than 100 µM in experiment [6]. Besides, the GI50 in experiment [7] and in experiment [8] was more than 100 µM in each case. For the same molecule, the TGI in experiment [1], in experiment [2], in experiment [3], in experiment [4], in experiment [5] and in experiment [6] was more than 100 µM throughout. Besides, the TGI in experiment [7] and in experiment [8] was more than 100 µM throughout.
For `O=CC(O)C(O)C(OC1OC(CO)C(O)C(O)C1O)C(O)CO` (stereo not drawn) (tested in a mixture with another compound), the TGI in experiment [1], in experiment [2], in experiment [3], in experiment [4], in experiment [5] and in experiment [6] was more than 100 µM throughout. Moreover, the TGI in experiment [7] was more than 100 µM; in experiment [8], 54 µM.
Consider `CCc1c(C#N)c(SC(C(N)=O)c2ccccc2)nc(N2CCC(N)CC2)c1C#N` (stereo not drawn), for which the GI50 in experiment [1] is 14.7 µM; in experiment [2], 4.56 µM; in experiment [3], 15.3 µM; in experiment [4], 14.6 µM; in experiment [5], 13 µM; in experiment [6], 15.5 µM. Also, the GI50 is 15.5 µM in experiment [7] and 53.5 µM in experiment [8]. Also, the TGI in experiment [1] stood at 28.6 µM; in experiment [2], 19.2 µM; in experiment [3], 29.9 µM; in experiment [4] it was 31.8 µM; in experiment [5], 27.7 µM; in experiment [6] it was 29.6 µM. The TGI was 31.7 µM in experiment [7] and more than 100 µM in experiment [8].
With `O=C(Nc1nc2c(s1)CCc1c-2c(Br)n(Cc2ccccc2)c1Br)c1ccccc1`, the GI50 in experiment [1] is 9.89 µM; in experiment [2] it was 1.2 µM; in experiment [3], 2.98 µM; in experiment [4], 1.4 µM; in experiment [5], 1.87 µM; in experiment [6], 21.4 µM. Moreover, the GI50 was 47.3 µM in experiment [7] and 12.4 µM in experiment [8]. Besides, the TGI in experiment [1] is more than 100 µM; in experiment [2], 4.63 µM; in experiment [3], 7.85 µM; in experiment [4] it was 19.7 µM; in experiment [5], 9.16 µM; in experiment [6], more than 100 µM. Moreover, the TGI in experiment [7] and in experiment [8] was more than 100 µM in each case.
For the molecule `COC(=O)C1=Nc2ccc(F)cc2/C1=C/c1sc(=S)[nH]c1O`, the GI50 is 0.097 µM in experiment [1]; 1.19 µM in experiment [2]; 0.848 µM in experiment [3]; 4.41 µM in experiment [4]; 0.959 µM in experiment [5]; 0.0499 µM in experiment [6]. The GI50 in experiment [7] was 0.91 µM; in experiment [8], 0.0663 µM. The TGI in experiment [1] was 7 µM; in experiment [2] it was 14.4 µM; in experiment [3] it was 19.3 µM; in experiment [4] it was more than 100 µM; in experiment [5] it was 10.3 µM; in experiment [6] it was more than 100 µM. In addition, the TGI in experiment [7] and in experiment [8] was more than 100 µM throughout.
As to `Cc1ccc(C(=O)N2C/C(=C/c3ccccc3)C(=O)/C(=C/c3ccccc3)C2)cc1`, the GI50 in experiment [1] is more than 57.5 µM; in experiment [2] it was 10.7 µM; in experiment [3], 20.8 µM; in experiment [4], 15.6 µM; in experiment [6], 2.94 µM; in experiment [7] it was more than 75.5 µM. The GI50 in experiment [8] was 3.13 µM. Further, the TGI in experiment [1] is more than 100 µM; in experiment [2], more than 100 µM; in experiment [3], 90 µM; in experiment [4], more than 100 µM; in experiment [5] it was more than 100 µM; in experiment [6] it was more than 59.3 µM. The TGI in experiment [7] and in experiment [8] was more than 100 µM each time.
With `C=CC[PH+](c1ccccc1)c1ccccc1.C=CC[PH+](c1ccccc1)c1ccccc1.[Pt+2].[S-]c1ncccn1.[S-]c1ncccn1`, the GI50 in experiment [1] was 7.66 µM; in experiment [2], 2.7 µM; in experiment [3], 5.8 µM; in experiment [4], 3.71 µM; in experiment [5], 16.6 µM; in experiment [6], 4.75 µM. For the same molecule, the values for the GI50 in experiment [7] and in experiment [8] were 15.1 µM and 2.94 µM, respectively. Moreover, the TGI amounted to 29.2 µM in experiment [1]; 19.7 µM in experiment [2]; 46.2 µM in experiment [3]; 87.2 µM in experiment [4]; 39.9 µM in experiment [5]; 29.7 µM in experiment [6]. Besides, the TGI worked out at 34.6 µM in experiment [7] and 10.4 µM in experiment [8].
`CCc1ccc(C2=NN(c3ccc(S(C)(=O)=O)cc3)C(=O)CC2)cc1`: the GI50 was 1.65 µM in experiment [1]; 1.86 µM in experiment [2]; 8.31 µM in experiment [3]; 4.44 µM in experiment [4]; 14.6 µM in experiment [5]; 0.56 µM in experiment [6]. Also, the results for the GI50 in experiment [7] and in experiment [8] were 6.47 µM and 1.38 µM, respectively. Moreover, the TGI in experiment [1] is more than 28.7 µM; in experiment [2] it was 23.7 µM; in experiment [3], more than 100 µM; in experiment [4], 98.1 µM; in experiment [5], more than 100 µM; in experiment [6] it was more than 100 µM. The TGI in experiment [7] and in experiment [8] was more than 100 µM each time.
In the case of `Cn1c(CC(O)c2nc3ccccc3n2C)nc2ccccc21` (stereo not drawn), the TGI in experiment [1] is more than 100 µM; in experiment [2], more than 38.7 µM; in experiment [3] it was more than 36.4 µM; in experiment [4], more than 16.7 µM; in experiment [5], more than 72.3 µM; in experiment [6], more than 47 µM. The TGI in experiment [7] is more than 74.3 µM; in experiment [8], more than 49.5 µM.
